Measurements from patent US20100047371A1, “COMPOSITIONS AND METHODS FOR ORAL CANCER CHEMOPREVENTION USING BERRY PREPARATIONS AND EXTRACTS” (priority 2006, published 2010).

How the values were obtained:
[1] = tested on: Human Oral Mucosa Explant Tissues; test: Effect of final gel pH on anthocyanin uptake into human oral mucosa explant tissues; format: in vitro ADME; conditions: 10% w/w FBR gel; for Anthocyanin uptake, Gel pH 3.5, Avg. ± SEM / Anthocyanin uptake, Gel pH 6.5, Avg. ± SEM: average of eleven explant samples; for % change 3.5 to 6.5, Avg. ± SEM: average of explant samples
Experimental: Anthocyanin content in sera, saliva, and tissue explants was evaluated by an HPLC-MS assay. The respective samples (sera, saliva or tissue homogenates) were dissolved in 90% solvent A (water plus 1% formic acid) and 10% solvent B (acetonitrile plus 1% formic acid) and then separated on a Symmetry C18 reversed-phase column and analyzed using a Waters 2695 gradient HPLC separation module equipped with a 996 photodiode-array (PDA) UV/visible absorbance detector (Milford, Mass.). The solvent system consisted of a step gradient from 90% A to 50% B over 15 minutes, and the absorption spectra were recorded from 200-800 nm with the inline PDA detector. Mass spectrometry was conducted on a quadrupole ion tunnel mass spectrometer equipped with a Z-spray ESI source. Explant protein levels were determined by the Lowry method, using bovine γ-globulin as the standard protein [Lippman et al., 1993]. Tissue explants, specifically human oral mucosal explants, were used to determine the in vitro effects of FBR content and pH on anthocyanin uptake. Human oral tissues for the tissue explant studies were obtained from consenting volunteers who were undergoing elective oral surgery procedures. To confirm “no pathologic diagnosis”, a portion of each of these tissues was submitted for light microscopic evaluation. […] Tissues for explant experiments were immediately placed in an artificial saliva transport medium, which also served as the incubation medium for the gel absorption studies. The composition of the artificial saliva used for tissue transport and incubation was (final concentrations): sodium carboxymethylcellulose (0.5%), sorbitol (165 mM), NaCl (14 mM), KCl (16 mM), calcium chloride dehydrate (1.0 mM), MgCl2 (0.63 mM), Trizma hydrochloride (2.0 mM). Tissues from eight donors were used for preliminary studies to compare the penetration of anthocyanins from the 5% berry gel and the 10% FBR gel, both at a final pH of 6.5. In order to account for heterogeneity among human donors, tissue samples were hemisected. One tissue portion treated with 5% and the other with 10% FBR gels. One gram of gel (containing either 5% or 10% w/w FBR) was placed on the epithelial surface of the explant, followed by gently rubbing of the site for 30 seconds to facilitate uptake. Explants were then placed into artificial saliva, incubated for 30 minutes (37° C., 5% CO2), and then frozen at −80° C. until HPLC-mass spectroscopy analyses as previously reported [Rodrigo et al., in press]. Tissue preparation for HPLC analyses consisted of homogenization of the entire oral mucosal specimen, removal of an aliquot for sample protein level determination, followed by the addition of collagenase type II (0.1 mg/mL, GIBCO, Grand Island, N.Y.) and 1% formic acid. Samples were then placed on a Sep Pack (Millipore, Billerica, Mass.), eluted with methanol, and dried under argon gas. Additional oral mucosal explant studies were conducted to compare the effect of FBR gel pH on absorption into oral mucosal explants. Tissues from eleven donors were used for these studies, and handling was as described above with the exception that all gels contained 10% w/w FBR and were formulated at a final pH of 3.5 or 6.5. […] Large differences (up to 15-fold) in detectable anthocyanin levels were found in the gel treated donor tissues; findings that likely reflect the extensive heterogeneity within human tissues that affects tissue penetrative abilities.

[2] = Human pharmacokinetic study: anthocyanins in saliva and peripheral blood after topical gel application; format: in vivo; conditions: 1.0 g 5% FBR Gel, pH 6.5 topical to floor of mouth, saliva collected 2-5 min after application
Experimental: Anthocyanin content in sera, saliva, and tissue explants was evaluated by an HPLC-MS assay. The respective samples (sera, saliva or tissue homogenates) were dissolved in 90% solvent A (water plus 1% formic acid) and 10% solvent B (acetonitrile plus 1% formic acid) and then separated on a Symmetry C18 reversed-phase column and analyzed using a Waters 2695 gradient HPLC separation module equipped with a 996 photodiode-array (PDA) UV/visible absorbance detector (Milford, Mass.). The solvent system consisted of a step gradient from 90% A to 50% B over 15 minutes, and the absorption spectra were recorded from 200-800 nm with the inline PDA detector. Mass spectrometry was conducted on a quadrupole ion tunnel mass spectrometer equipped with a Z-spray ESI source. Explant protein levels were determined by the Lowry method, using bovine γ-globulin as the standard protein [Lippman et al., 1993].
Next, evaluation of anthocyanin uptake into human oral mucosa from FBR gels prepared as described in Example 1 was undertaken. For in-vivo studies, participation of human subjects was conducted in accordance with an IRB approved protocol. […] For the phamacokinetic analyses, nine consenting adult volunteers dried the anterior floor of their mouth, placed 1.0 g of 5% berry gel (pH 6.5), and massaged the gel in place for 30 seconds to facilitate uptake. Two minutes after gel application saliva was collected for the next three minutes. Peripheral blood was drawn five minutes after gel application. Following clotting, sera samples were collected, and both the sera and saliva samples were stored at −80° C. until LC-MS analysis as described below.
All nine participants had detectable anthocyanin levels of three anthocyanins (cyanidin 3-rutinoside, cyanidin 3-xylosylrutinoside, cyanidin 3-glucoside) in either their saliva or blood, and 4 donors had detectable levels of two anthocyanins (cyanidin 3-rutinoside and cyanidin 3-xylosylrutinoside) in their peripheral blood. Saliva from eight of the nine donors contained detectable levels of either two (cyanidin 3-rutinoside and cyanidin 3-xylosylrutinoside-4 donors) or three anthocyanins (4 donors).

OC[C@H]1O[C@@H](Oc2cc3c(O)cc(O)cc3[o+]c2-c2ccc(O)c(O)c2)[C@H](O[C@@H]2OC[C@@H](O)[C@H](O)[C@H]2O)[C@@H](O)[C@@H]1O.[Cl-] [Cyanidin 3-sambubioside, cyanidin 3-sambubioside]
Anthocyanin uptake, Gel pH 3.5, Avg. ± SEM [1]: 1.9 pmol per mg tissue
Anthocyanin uptake, Gel pH 6.5, Avg. ± SEM [1]: 5.3 pmol per mg tissue
% change 3.5 to 6.5, Avg. ± SEM [1]: 89.0%
% change 3.5 to 6.5 ([1]; explant sample 001): 319.4%
Anthocyanin uptake, Gel pH 3.5 ([1]; explant sample 001): 7.4 pmol per mg tissue
Anthocyanin uptake, Gel pH 6.5 ([1]; explant sample 001): 30.9 pmol per mg tissue
% change 3.5 to 6.5 ([1]; explant sample 002): 427.3%
Anthocyanin uptake, Gel pH 3.5 ([1]; explant sample 002): 0.6 pmol per mg tissue
Anthocyanin uptake, Gel pH 6.5 ([1]; explant sample 002): 2.9 pmol per mg tissue
% change 3.5 to 6.5 ([1]; explant sample 003): −19.7%
Anthocyanin uptake, Gel pH 3.5 ([1]; explant sample 003): 1.8 pmol per mg tissue
Anthocyanin uptake, Gel pH 6.5 ([1]; explant sample 003): 1.4 pmol per mg tissue
% change 3.5 to 6.5 ([1]; explant sample 004): −66.4%
Anthocyanin uptake, Gel pH 3.5 ([1]; explant sample 004): 1.3 pmol per mg tissue
Anthocyanin uptake, Gel pH 6.5 ([1]; explant sample 004): 0.4 pmol per mg tissue
% change 3.5 to 6.5 ([1]; explant sample 005): −61.8%
Anthocyanin uptake, Gel pH 3.5 ([1]; explant sample 005): 0.3 pmol per mg tissue
Anthocyanin uptake, Gel pH 6.5 ([1]; explant sample 005): 0.1 pmol per mg tissue
% change 3.5 to 6.5 ([1]; explant sample 006): 330.8%
Anthocyanin uptake, Gel pH 3.5 ([1]; explant sample 006): 2.3 pmol per mg tissue
Anthocyanin uptake, Gel pH 6.5 ([1]; explant sample 006): 10.1 pmol per mg tissue
% change 3.5 to 6.5 ([1]; explant sample 007): −14.6%
Anthocyanin uptake, Gel pH 3.5 ([1]; explant sample 007): 0.4 pmol per mg tissue
Anthocyanin uptake, Gel pH 6.5 ([1]; explant sample 007): 0.4 pmol per mg tissue
Anthocyanin uptake, Gel pH 3.5 ([1]; explant sample 008): 0.0 pmol per mg tissue
Anthocyanin uptake, Gel pH 6.5 ([1]; explant sample 008): 1.9 pmol per mg tissue
% change 3.5 to 6.5 ([1]; explant sample 009): 256.9%
Anthocyanin uptake, Gel pH 3.5 ([1]; explant sample 009): 2.9 pmol per mg tissue
Anthocyanin uptake, Gel pH 6.5 ([1]; explant sample 009): 10.3 pmol per mg tissue
% change 3.5 to 6.5 ([1]; explant sample 010): −92.9%
Anthocyanin uptake, Gel pH 3.5 ([1]; explant sample 010): 2.0 pmol per mg tissue
Anthocyanin uptake, Gel pH 6.5 ([1]; explant sample 010): 0.1 pmol per mg tissue
% change 3.5 to 6.5 ([1]; explant sample 011): −100%
Anthocyanin uptake, Gel pH 3.5 ([1]; explant sample 011): 2.1 pmol per mg tissue
Anthocyanin uptake, Gel pH 6.5 ([1]; explant sample 011): 0.0 pmol per mg tissue

OC[C@H]1O[C@@H](Oc2cc3c(O)cc(O)cc3[o+]c2-c2ccc(O)c(O)c2)[C@H](O)[C@@H](O)[C@@H]1O [cyanidin 3-glucoside]
Anthocyanin uptake, Gel pH 3.5, Avg. ± SEM [1]: 29.6 pmol per mg tissue
Anthocyanin uptake, Gel pH 6.5, Avg. ± SEM [1]: 50.2 pmol per mg tissue
% change 3.5 to 6.5, Avg. ± SEM [1]: 85.6%
% change 3.5 to 6.5 ([1]; explant sample 001): 131.6%
Anthocyanin uptake, Gel pH 3.5 ([1]; explant sample 001): 128.1 pmol per mg tissue
Anthocyanin uptake, Gel pH 6.5 ([1]; explant sample 001): 296.6 pmol per mg tissue
% change 3.5 to 6.5 ([1]; explant sample 002): 36.2%
Anthocyanin uptake, Gel pH 3.5 ([1]; explant sample 002): 13.6 pmol per mg tissue
Anthocyanin uptake, Gel pH 6.5 ([1]; explant sample 002): 18.5 pmol per mg tissue
% change 3.5 to 6.5 ([1]; explant sample 003): −16.6%
Anthocyanin uptake, Gel pH 3.5 ([1]; explant sample 003): 14.4 pmol per mg tissue
Anthocyanin uptake, Gel pH 6.5 ([1]; explant sample 003): 12.0 pmol per mg tissue
% change 3.5 to 6.5 ([1]; explant sample 004): 653.5%
Anthocyanin uptake, Gel pH 3.5 ([1]; explant sample 004): 1.6 pmol per mg tissue
Anthocyanin uptake, Gel pH 6.5 ([1]; explant sample 004): 12.0 pmol per mg tissue
% change 3.5 to 6.5 ([1]; explant sample 005): 65.3%
Anthocyanin uptake, Gel pH 3.5 ([1]; explant sample 005): 32.0 pmol per mg tissue
Anthocyanin uptake, Gel pH 6.5 ([1]; explant sample 005): 52.9 pmol per mg tissue
% change 3.5 to 6.5 ([1]; explant sample 006): 91.3%
Anthocyanin uptake, Gel pH 3.5 ([1]; explant sample 006): 31.5 pmol per mg tissue
Anthocyanin uptake, Gel pH 6.5 ([1]; explant sample 006): 60.3 pmol per mg tissue
% change 3.5 to 6.5 ([1]; explant sample 007): 34.5%
Anthocyanin uptake, Gel pH 3.5 ([1]; explant sample 007): 17.0 pmol per mg tissue
Anthocyanin uptake, Gel pH 6.5 ([1]; explant sample 007): 22.8 pmol per mg tissue
% change 3.5 to 6.5 ([1]; explant sample 008): −40.7%
Anthocyanin uptake, Gel pH 3.5 ([1]; explant sample 008): 33.2 pmol per mg tissue
Anthocyanin uptake, Gel pH 6.5 ([1]; explant sample 008): 19.7 pmol per mg tissue
% change 3.5 to 6.5 ([1]; explant sample 009): 113.9%
Anthocyanin uptake, Gel pH 3.5 ([1]; explant sample 009): 21.2 pmol per mg tissue
Anthocyanin uptake, Gel pH 6.5 ([1]; explant sample 009): 45.3 pmol per mg tissue
% change 3.5 to 6.5 ([1]; explant sample 010): −66.9%
Anthocyanin uptake, Gel pH 3.5 ([1]; explant sample 010): 13.9 pmol per mg tissue
Anthocyanin uptake, Gel pH 6.5 ([1]; explant sample 010): 4.6 pmol per mg tissue
% change 3.5 to 6.5 ([1]; explant sample 011): −60.1%
Anthocyanin uptake, Gel pH 3.5 ([1]; explant sample 011): 18.9 pmol per mg tissue
Anthocyanin uptake, Gel pH 6.5 ([1]; explant sample 011): 7.5 pmol per mg tissue
Anthocyanin concentration in saliva ([2]; patient 104): 11.2 pmol/mL
Anthocyanin concentration in saliva ([2]; patient 105): 9.7 pmol/mL
Anthocyanin concentration in saliva ([2]; patient 107): 19.7 pmol/mL
Anthocyanin concentration in saliva ([2]; patient 109): 22.8 pmol/mL
